{"source": "ChEMBL document CHEMBL5512619", "about": "“Anticancer mechanism of coumarin-based derivatives” (Eur J Med Chem, 2024)", "key": {"[1]": {"test_system": "RT-4", "test": "Cytotoxicity against human RT-4 cells assessed as inhibition of cell growth", "assay_type": "functional, cell-based"}, "[2]": {"test_system": "A-427", "test": "Cytotoxicity against human A-427 cells assessed as inhibition of cell growth", "assay_type": "functional, cell-based"}, "[3]": {"test_system": "LCLC-103H cell line", "test": "Cytotoxicity against human LCLC-103H cell line assessed as inhibition of cell growth", "assay_type": "functional, cell-based"}, "[4]": {"test_system": "HCT-116", "test": "Antiproliferative activity against human HCT-116 cells measured after 72 hrs in presence of paclitaxel by SRB method", "assay_type": "functional, cell-based", "conditions": "HCT-116, 72 h"}, "[5]": {"test_system": "MCF7", "test": "Antiproliferative activity against human MCF7 cells measured after 72 hrs by SRB method", "assay_type": "functional, cell-based", "conditions": "MCF7, 72 h"}, "[6]": {"test_system": "HeLa", "test": "Antiproliferative activity against human HeLa cells measured after 72 hrs by SRB method", "assay_type": "functional, cell-based"}, "[7]": {"test_system": "HCT-116", "test": "cells", "conditions": "Homo sapiens, HCT-116, 72 h", "description": "Antiproliferative activity against human HCT-116 cells measured after 72 hrs by SRB method"}, "[8]": {"test_system": "HepG2", "test": "Antiproliferative activity against human HepG2 cells measured after 72 hrs by SRB method", "assay_type": "functional, cell-based", "conditions": "HepG2, 72 h"}, "[9]": {"test_system": "Caco-2", "test": "Antiproliferative activity against human Caco-2 cells measured after 72 hrs in presence of paclitaxel by SRB method", "assay_type": "functional, cell-based", "conditions": "Caco-2, 72 h"}, "[10]": {"test_system": "A549", "test": "Cytotoxicity against human A549 cells assessed as inhibition of cell growth by MTT assay", "assay_type": "functional, cell-based"}, "[11]": {"test_system": "MCF7", "test": "Cytotoxicity against human MCF7 cells assessed as inhibition of cell growth by MTT assay", "assay_type": "functional, cell-based"}, "[12]": {"test": "Cytotoxicity against human BEAS-2B cells assessed as inhibition of cell growth by MTT assay", "assay_type": "toxicity, cell-based"}, "[13]": {"target": "Bromodomain-containing protein 4 (Homo sapiens, UniProt O60885)", "test": "Inhibition of BRD4 (unknown origin)"}, "[14]": {"test_system": "MDA-MB-231", "test": "Inhibition of cell invasion in human MDA-MB-231 cells at 100 uM measured after 24 hrs by crystal violet staining based microscopy analysis relative to control", "assay_type": "functional"}, "[15]": {"test_system": "Caco-2", "test": "Antiproliferative activity against human Caco-2 cells measured after 72 hrs by SRB method", "conditions": "Caco-2, 72 h"}, "[16]": {"test_system": "KB", "test": "Antiproliferative activity against human KB cells measured after 48 hrs by MTT assay", "assay_type": "functional, cell-based"}, "[17]": {"test_system": "T98G", "test": "Induction of apoptosis in human T98G cells relative to control", "assay_type": "functional"}}, "note": "pIC50: −log10 of the molar value."}
{"smiles": "CCN(CC)c1ccc2cc(-c3nc4ccccc4o3)c(=N)oc2c1", "values": [{"measurement": "pIC50", "setting": "[1]", "value": "> 8.00"}, {"measurement": "pIC50", "setting": "[2]", "value": "> 8.00"}, {"measurement": "pIC50", "setting": "[3]", "value": "> 8.00"}]}
{"smiles": "COc1cc(C)c2oc(=O)c(C)c3c2c1[C@@H](C)CO3", "values": [{"measurement": "pIC50", "setting": "[4]", "value": 8.29}, {"measurement": "pIC50", "setting": "[5]", "value": 6.13}, {"measurement": "pIC50", "setting": "[6]", "value": 6.13}, {"measurement": "pIC50", "setting": "[7]", "value": 6.13}, {"measurement": "pIC50", "setting": "[8]", "value": 6.13}, {"measurement": "pIC50", "setting": "[9]", "value": 6.89}]}
{"smiles": "C/C(=N\\Cc1ccc(O)cc1)c1c(O)c2ccccc2oc1=O", "values": [{"measurement": "IC50", "setting": "[10]", "value": 6.09, "unit": "µg/mL"}, {"measurement": "IC50", "setting": "[11]", "value": 1.41, "unit": "µg/mL"}, {"measurement": "IC50", "setting": "[12]", "value": 4.08, "unit": "µg/mL"}]}
{"smiles": "CCS(=O)(=O)Nc1ccc(Oc2ccccc2OC)c(-c2ccc3oc(=O)cc(OC)c3c2)c1", "values": [{"measurement": "pIC50", "setting": "[13]", "value": 7.00}]}
{"smiles": "COc1ccc2ccc(=O)oc2c1CC=C(C)C", "note": "[OSTHOLE]", "values": [{"measurement": "inhibition at 100 µM", "setting": "[14]", "value": 97.6, "unit": "%"}]}
{"smiles": "CC(=O)O[C@H]1C(=O)[C@@]2(C)[C@H]([C@H](OC(=O)c3ccccc3)[C@]3(O)C[C@H](OC(=O)[C@H](O)[C@@H](NC(=O)c4ccccc4)c4ccccc4)C(C)=C1C3(C)C)[C@]1(OC(C)=O)CO[C@@H]1C[C@@H]2O", "note": "[PACLITAXEL]", "values": [{"measurement": "pIC50", "setting": "[15]", "value": 5.68}, {"measurement": "pIC50", "setting": "[7]", "value": 7.55}]}
{"smiles": "O=c1ccc2ccc(O)cc2o1", "note": "[UMBELLIFERONE]", "values": [{"measurement": "pIC50", "setting": "[16]", "value": 3.70}, {"measurement": "Activity", "setting": "[17]", "value": 15, "unit": "%"}]}
